Data reported in patent US10633354B2, “Substituted tricyclic heterocyclic compounds” (BRISTOL-MYERS SQUIBB COMPANY, priority 2016, dated 2020).

Assays:
[1] = Parent and phosphate concentrations in the BLR assay; conditions: rat, in vivo, po, Lewis rats dosed orally
Procedure: (§1) Blood Lymphocyte Reduction (BLR) Assay in Rodent:
Lewis rats were dosed orally with vehicle alone (polyethylene glycol 300, “PEG300”) or with test compounds. Compounds were dosed as a solution or suspension in the vehicle, adjusted to reflect the free amount of test article in the event that salt forms are utilized. Blood was drawn at 24 hr and blood lymphocyte counts were determined on an ADVIA 120 Hematology Analyzer (Siemens Healthcare Diagnostics). The results were measured as a reduction in the percentage of circulating lymphocytes as compared to the vehicle treated group at the time of measurement. The results represent the average results of all animals within each treatment group (n=2).

[2] = as above; conditions: rat, in vivo, po, Lewis rats dosed orally; remark: listed apart in the source
circulating lymphocytes = assay: Blood Lymphocyte Reduction (BLR) assay in rodent; type: in vivo; conditions: Lewis rats dosed orally; for BL (×10^3/mm^3): n=2; for Lymp. Red.: vs vehicle group
Procedure: as §1
Lewis rats were dosed orally with vehicle alone (polyethylene glycol 300, “PEG300”) or with test compounds. Compounds were dosed as a solution or suspension in the vehicle, adjusted to reflect the free amount of test article in the event that salt forms are utilized. […] The results were measured as a reduction in the percentage of circulating lymphocytes as compared to the vehicle treated group at the time of measurement. The results represent the average results of all animals within each treatment group (n=2).

SMILES	concentration at 24 h [1]	concentration at 4 h [2]	BL (×10^3/mm^3) (circulating lymphocytes; 4 Hours)	Lymp. Red. (circulating lymphocytes; 4 Hours)	BL (×10^3/mm^3) (circulating lymphocytes; 24 Hours)	Lymp. Red. (circulating lymphocytes; 24 Hours)
CCCCCCCc1nc2c(s1)-c1ccc([C@H]3CC[C@](N)(CO)C3)cc1CC2 [Example 1, ((1R,3S)-1-amino-3-(2-heptyl-4,5-dihydronaphtho[2,1-d]thiazol-7-yl)cyclopentyl) methanol]	111 nM	66 nM	5.7 ×10^3/mm^3	40%	1.8 ×10^3/mm^3	77%
CCCc1nc2c(s1)-c1ccc([C@H]3CC[C@](N)(CO)C3)cc1CC2 [Example 2, ((1R,3S)-1-amino-3-(2-propyl-4,5-dihydronaphtho[2,1-d]thiazol-7-yl)cyclopentyl) methanol]	< 19 nM	108 nM	4.9 ×10^3/mm^3	41%	8.2 ×10^3/mm^3	0%
CCCCCCc1nc2c(s1)-c1ccc([C@H]3CC[C@](N)(CO)C3)cc1CC2 [Example 5, ((1R,3S)-1-amino-3-(2-hexyl-4,5-dihydronaphtho[2,1-d]thiazol-7-yl)cyclopentyl)methanol]	9 nM	77 nM	2.8 ×10^3/mm^3	66%	4.5 ×10^3/mm^3	48%
CCCCc1nc2c(s1)-c1ccc([C@H]3CC[C@](N)(CO)C3)cc1CC2 [Example 6, ((1R,3S)-1-amino-3-(2-butyl-4,5-dihydronaphtho[2,1-d]thiazol-7-yl)cyclopentyl)methanol]	66 nM	109 nM	3.4 ×10^3/mm^3	59%	1.5 ×10^3/mm^3	82%
CCCCOCCOc1nc2c(s1)-c1ccc([C@H]3CC[C@](N)(CO)C3)cc1CC2 [Example 7, ((1R,3S)-1-amino-3-(2-(2-butoxyethoxy)-4,5-dihydronaphtho[2,1-d]thiazol-7-yl)cyclopentyl)methanol]	142 nM	1 nM	1.9 ×10^3/mm^3	79%	1.2 ×10^3/mm^3	87%
CCCCOc1nc2c(s1)-c1ccc([C@H]3CC[C@](N)(CO)C3)cc1CC2 [Example 8, ((1R,3S)-1-amino-3-(2-butoxy-4,5-dihydronaphtho[2,1-d]thiazol-7-yl)cyclopentyl)methanol]	7 nM	35 nM	2.5 ×10^3/mm^3	74%	2.4 ×10^3/mm^3	68%
CCCCCCOc1nc2c(s1)-c1ccc([C@H]3CC[C@](N)(CO)C3)cc1CC2 [Example 9, ((1R,3S)-1-amino-3-(2-(hexyloxy)-4,5-dihydronaphtho[2,1-d]thiazol-7-yl)cyclopentyl) methanol]	31 nM	72 nM	2.8 ×10^3/mm^3	66%	1.4 ×10^3/mm^3	82%
CCCCSc1nc2c(s1)-c1ccc([C@H]3CC[C@](N)(CO)C3)cc1CC2 [Example 10, ((1R,3S)-1-amino-3-(2-(butylthio)-4,5-dihydronaphtho[2,1-d]thiazol-7-yl)cyclopentyl)methanol]	1 nM	9 nM	1.7 ×10^3/mm^3	82%	4.1 ×10^3/mm^3	48%
CCCCCSc1nc2c(s1)-c1ccc([C@H]3CC[C@](N)(CO)C3)cc1CC2 [Example 11, ((1R,3S)-1-amino-3-(2-(pentylthio)-4,5-dihydronaphtho[2,1-d]thiazol-7-yl)cyclopentyl) methanol]	16 nM	87 nM	2.3 ×10^3/mm^3	72%	2.1 ×10^3/mm^3	76%
CCCCCOc1nc2c(s1)-c1ccc([C@H]3CC[C@](N)(CO)C3)cc1CC2 [Example 12, ((1R,3S)-1-amino-3-(2-(pentyloxy)-4,5-dihydronaphtho[2,1-d]thiazol-7-yl)cyclopentyl)methanol]	29 nM	81 nM	2.8 ×10^3/mm^3	67%	1.8 ×10^3/mm^3	80%
CCCCCCOc1nc2ccc3cc([C@H]4CC[C@](N)(CO)C4)ccc3c2s1 [Example 13, ((1R,3S)-1-amino-3-(2-(hexyloxy)naphtho[2,1-d]thiazol-7-yl)cyclopentyl)methanol]	78 nM	65 nM	2.5 ×10^3/mm^3	73%	1.4 ×10^3/mm^3	83%
CCCCOc1nc2ccc3cc([C@H]4CC[C@](N)(CO)C4)ccc3c2s1 [Example 16, ((1R,3S)-1-amino-3-(2-butoxynaphtho[2,1-d]thiazol-7-yl)cyclopentyl)methanol]	21 nM	28 nM	2.9 ×10^3/mm^3	65%	1.9 ×10^3/mm^3	77%

Second part, led by results:

concentration at 24 h [1]	concentration at 4 h [2]	SMILES	BL (×10^3/mm^3) (circulating lymphocytes; 4 Hours)	Lymp. Red. (circulating lymphocytes; 4 Hours)	BL (×10^3/mm^3) (circulating lymphocytes; 24 Hours)	Lymp. Red. (circulating lymphocytes; 24 Hours)
8 nM	15 nM	CCCCSc1nc2ccc3cc([C@H]4CC[C@](N)(CO)C4)ccc3c2s1 [Example 14, ((1R,3S)-1-amino-3-(2-(butylthio)naphtho[2,1-d]thiazol-7-yl)cyclopentyl)methanol]	2.6 ×10^3/mm^3	69%	2.1 ×10^3/mm^3	75%
17 nM	31 nM	CCCCCOc1nc2ccc3cc([C@H]4CC[C@](N)(CO)C4)ccc3c2s1 [Example 15, ((1R,3S)-1-amino-3-(2-(pentyloxy)naphtho[2,1-d]thiazol-7-yl)cyclopentyl)methanol]	1.7 ×10^3/mm^3	80%	1.8 ×10^3/mm^3	80%
0 nM	33 nM	CCCCNc1nc2c(s1)-c1ccc([C@H]3CC[C@](N)(CO)C3)cc1CC2 [Example 17, ((1R,3S)-1-amino-3-(2-(butylamino)-4,5-dihydronaphtho[2,1-d]thiazol-7-yl)cyclopentyl)methanol]	5.8 ×10^3/mm^3	37%	8.4 ×10^3/mm^3	0%
18 nM	113 nM	CCCCN(C)c1nc2c(s1)-c1ccc([C@H]3CC[C@](N)(CO)C3)cc1CC2 [Example 18, ((1R,3S)-1-amino-3-(2-(butyl(methyl)amino)-4,5-dihydronaphtho[2,1-d]thiazol-7-yl)cyclopentyl)methanol]	5.9 ×10^3/mm^3	30%	6.4 ×10^3/mm^3	27%
37 nM	48 nM	Cc1ccc(-c2nc3c(s2)-c2ccc([C@H]4CC[C@](N)(CO)C4)cc2CC3)cc1 [Example 19, ((1R,3S)-1-amino-3-(2-(p-tolyl)-4,5-dihydronaphtho[2,1-d]thiazol-7-yl)cyclopentyl)methanol]	7.5 ×10^3/mm^3	9%	8.2 ×10^3/mm^3	2%
68 nM	97 nM	COc1cccc(-c2nc3c(s2)-c2ccc([C@H]4CC[C@](N)(CO)C4)cc2CC3)c1 [Example 20, ((1R,3S)-1-amino-3-(2-(3-methoxyphenyl)-4,5-dihydronaphtho[2,1-d]thiazol-7-yl)cyclopentyl)methanol]	5.7 ×10^3/mm^3	31%	3.1 ×10^3/mm^3	63%
